Patent publication US8038997B2, “Anti-marinobufagenin antibodies and methods for their use” (priority 2005, dated 2011)

Key:
4G4 mAb = assay: Cross-reactivity of the 4G4 mAb (50% displacement of bound MBG); format: binding, mouse; details: amount of MBG for 50% displacement versus amount of cross-reactant
From the text: (§1) The percent cross-reactivity of the 3E9, 4G4 and 4H2 mAbs was defined as the ratio of the amount of MBG required to displace 50% of maximally bound MBG from the particular anti-MBG mAb, versus the amount of the cross-reactant to give the same 50% displacement. The binding specificities of the 3E9 mAb for a panel of steroids are shown in Table I; those for the 4112 and 4G4 mAbs are shown in Table II.

4H2 mAb = assay: Cross-reactivity of the 4H2 mAb (50% displacement of bound MBG); format: binding, mouse; details: amount of MBG for 50% displacement versus amount of cross-reactant
From the text: as §1

3E9 mAb = assay: Cross-reactivity of the 3E9 mAb (50% displacement of bound MBG); format: binding, mouse; details: amount of MBG for 50% displacement versus amount of cross-reactant
From the text: as §1

[1] = test system: polyclonal antidigoxin rabbit antibody; assay: DELFIA immunoassay, displacement of digoxin standards; format: binding; details: equimolar concentrations of MBG and its conjugate
From the text: Prior to immunization, the conjugate MBG-glycoside-BSA was compared with MBG for its ability to react with polyclonal antidigoxin rabbit antibody, using a DELFIA immunoassay.

Sprague-Dawley rats = assay: Experimental uremic cardiomyopathy: partial nephrectomy, MBG infusion, immunization against MBG-BSA
Experimental: (§2) Male, Sprague-Dawley were use in this study. Rats subjected to sham surgery and no MBG infusion or partial nephrectomy were referred to as Sham (n=18). […] MBG-infused rats were referred to as MBG (n=20). Rats immunized against MBG-BSA conjugate before partial nephrectomy were referred to as PNx-IM (n=18).
(§3) MBG was isolated from toad (Bufo Marinus) venom. […] MBG was infused for a period of 4 weeks at 10 μg/kg per day with an osmotic minipump (Alzet Model 2004, Durect Corp).
(§4) Partial nephrectomy (five-sixth nephrectomy) was induced by removal of the right kidney and selective infarction of two-thirds of the left kidney with silk ligatures.
(§5) Rats were immunized with an MBG-BSA conjugate and subjected to partial nephrectomy. The immunization schedule was 3 weekly injections (250 μg/kg per week SQ) in complete Freund's adjuvant before the partial nephrectomy with a last boost at the time of surgery.
(§6) BP was measured once a week by the tail-cuff method in conscious, restrained rats with equipment made by IITC, Inc (Amplifier model 229, Monitor model 31, Test chamber Model 306; IITC Life Science). Before sacrifice at 4 weeks, animals had ventricular pressures determined by placement of a 2F Millar Microtip Catheter Transducer (Millar Instruments Inc) into the left ventricle through a carotid insertion. Hemodynamic data were acquired at 500 Hz and stored electronically using a BioPac MP110 acquisition system and AcqKnowledge 4.7.3 software (BIOPAC Systems, Inc). The values of left ventricular end-diastolic pressure (LVEDP), systolic pressure, developed pressure, maximal velocity of rise or fall in pressure (dP/dt) and the time constant for isovolumic relaxation were determined using standard methods. At the end of 4 weeks, 2D and M-mode echocardiographic studies were performed using a Philips Sonos 5500 cardiovascular ultrasound imaging system (Philips Medical Systems) equipped with a 15 MHz linear transducer. Parasternal long-axis and short-axis views were obtained.
(§7) MBG and ouabain-like compound (OLC) in plasma and urine was determined at 4 weeks after extraction with C-18 columns.
(§8) At the time of sacrifice, left ventricles were quickly dissected out, frozen in liquid nitrogen, and stored at −80° C. until further analysis. Western blot analysis was performed using SDS-PAGE gels (Ready Gel, BioRad).
(§9) Total protein carbonyl concentration of both the plasma and left ventricular homogenate was determined by ELISA using the Zentech PC Test kit (Northwest Life Science Specialties). Total plasma malondialdehyde was measured spectrophotometrically using the Bioxytech MDA-586 kit (Oxis Research).
(§10) To measure sarcoplasmic reticulum calcium ATPase activity, which is predominantly SERCA2a activity in left ventricles of rat cardiac tissue, the method of Simonides and van Hardeveld (Simonides and van Hardeveld, Anal. Biochem. 191:321-331, 1990) was used with minor modifications.
(§11) Hematocrit was measured from whole blood collected in heparinized capillary tubes and spun on a microhematocrit centrifuge (Fisher Scientific). Plasma creatinine was determined spectrophotometrically with a colorimetric end point assay (Teco Diagnostics). Plasma aldosterone levels were measured by ELISA (Cayman). Plasma parathyroid hormone was assayed using the Rat Intact PTH ELISA kit (Immutopics). All of the analyses were performed on blood collected upon sacrifice at 4 weeks.

[2] = as above; details: male, Sprague-Dawley, rat, plasma, other: infusion with an osmotic minipump, 10 μg/kg per day
Experimental: as §2, §3, §4, §5, §6, §7, §8, §9, §10, §11

[3] = 4 weeks after MBG infusion or immunization prior to partial nephrectomy

Compound	4G4 Percent cross-immunoreactivity (4G4 mAb)	4H2 Percent cross-immunoreactivity (4H2 mAb)	Percent cross-immunoreactivity (3E9 mAb)	further results
C[C@]12CC[C@H](O)C[C@H]1CC[C@@H]1[C@@H]2CC[C@]2(C)[C@@H](c3ccc(=O)oc3)CC[C@]12O [Bufalin]	0.08%	0.07%	0.25%	
CC(=O)O[C@H]1[C@H]2O[C@]23[C@@H]2CC[C@@H]4C[C@@H](O)CC[C@]4(C)[C@H]2CC[C@]3(C)[C@H]1c1ccc(=O)oc1 [Cinobufagin]	0.07%	0.11%	1.4%	
CC(=O)O[C@H]1[C@H]2O[C@]23[C@@H]2CC[C@]4(O)C[C@@H](O)CC[C@]4(C)[C@H]2CC[C@]3(C)[C@H]1c1ccc(=O)oc1 [Cinobufotalin]	43%	58%	4%	
C[C@]12C[C@H](O)[C@H]3[C@@H](CCC4=CC(=O)CC[C@@]43C)[C@@H]1CC[C@@H]2C(=O)CO [Corticosterone]			<0.01%	
C[C@H]1O[C@@H](O[C@H]2[C@@H](O)C[C@H](O[C@H]3[C@@H](O)C[C@H](O[C@H]4CC[C@@]5(C)[C@H](CC[C@@H]6[C@@H]5CC[C@]5(C)[C@@H](C7=CC(=O)OC7)CC[C@]65O)C4)O[C@@H]3C)O[C@@H]2C)C[C@H](O)[C@@H]1O [Digitoxin]			0.7%	
C[C@H]1O[C@@H](O[C@H]2[C@@H](O)C[C@H](O[C@H]3[C@@H](O)C[C@H](O[C@H]4CC[C@@]5(C)[C@H](CC[C@@H]6[C@@H]5C[C@@H](O)[C@]5(C)[C@@H](C7=CC(=O)OC7)CC[C@]65O)C4)O[C@@H]3C)O[C@@H]2C)C[C@H](O)[C@@H]1O [Digoxin]	0.003%	0.03%	1.8%	
C[C@]12CC[C@H](O)C[C@@]1(O)CC[C@@H]1[C@@H]2CC[C@]2(C)[C@@H](c3ccc(=O)oc3)CC3O[C@@]312 (stereo partly drawn) [MBG, 3β,5β-dihydroxy-14,15-epoxy bufadienolide]	100%	100%	100%	displacement of digoxin standards [1]: exactly similar displacement of digoxin standards; Hematocrit (Sprague-Dawley rats; [3]): 44.6 ± 0.9%; Left ventricular carbonylated protein (Sprague-Dawley rats; [3]): 505 ± 22 pmol/mg protein; Plasma [OLC] (Sprague-Dawley rats; [3]): 493 ± 41 pmol/L; Plasma aldosterone (Sprague-Dawley rats; [3]): 322 ± 38 pg/mL; Plasma carbonylated protein (Sprague-Dawley rats; [3]): 378 ± 15 pmol/mg protein; Plasma creatinine (Sprague-Dawley rats; [3]): 0.52 ± 0.07 mg/dL; Plasma parathyroid hormone (Sprague-Dawley rats; [3]): 41 ± 9 pg/mL; Plasma total malondialdehyde (Sprague-Dawley rats; [3]): 474 ± 41 nm; Urinary MBG excretion (UMBGV) (Sprague-Dawley rats; [3]): 49.1 ± 3.5 pmol/24 h; Urinary OLC excretion (UOLCV) (Sprague-Dawley rats; [3]): 10.6 ± 0.9 pmol/24 h; left ventricular hemodynamics (dP/dt, LVEDP, time constant for isovolumic relaxation) (Sprague-Dawley rats; Millar catheter after 4 weeks): only the changes in LVEDP and time constant for isovolumic relaxation achieved statistical significance; heart weight / cardiac size (Sprague-Dawley rats; after 4 weeks): significant increases in heart weight; echocardiographic changes (wall thickness, chamber size, FS) (Sprague-Dawley rats; at 4 weeks, MBG versus sham, immunization versus partial nephrectomy): not associated with significant changes; systolic BP during the 4 weeks of observation (Sprague-Dawley rats; tail-cuff, conscious rats, MBG versus control, immunization versus partial nephrectomy): some increases in BP; concentration at 4 weeks [2]: 0.546 ± 0.034 nM
C[C@]12CC[C@H](OC(=O)CCCCCCC(=O)N[C@@H](CCCN=C(N)N)C(=O)O)C[C@@]1(O)CC[C@@H]1[C@@H]2CC[C@]2(C)[C@@H](c3ccc(=O)oc3)C[C@H]3O[C@]132 [Marinobufotoxin]	44%	55%	4%	
C[C@]12C[C@@H](O)[C@H]3[C@@H](CC[C@]4(O)C[C@@H](O)C[C@@H](O)[C@]34CO)[C@@]1(O)CC[C@@H]2C1=CC(=O)OC1 [Ouabagenin]			<0.01%	
C[C@@H]1O[C@@H](O[C@H]2C[C@@H](O)[C@]3(CO)[C@H]4[C@H](O)C[C@]5(C)[C@@H](C6=CC(=O)OC6)CC[C@]5(O)[C@@H]4CC[C@]3(O)C2)[C@H](O)[C@H](O)[C@H]1O [Ouabain]	0.004%	0.03%	0.3%	
C[C@]12C=CC(=O)C=C1CC[C@@H]1[C@@H]2C(=O)C[C@@]2(C)[C@H]1CC[C@]2(O)C(=O)CO [Prednisone]			<0.01%	
CC(=O)[C@H]1CC[C@H]2[C@@H]3CCC4=CC(=O)CC[C@]4(C)[C@H]3CC[C@]12C [Progesterone]			0.3%	
C[C@@H]1O[C@@H](O[C@@H]2C=C3CC[C@@H]4[C@H](CC[C@]5(C)[C@@H](c6ccc(=O)oc6)CC[C@]45O)[C@@]3(C)CC2)[C@H](O)[C@H](O)[C@H]1O [Proscillaridin]			3%	
C[C@]12CC[C@H](O)C[C@H]1CC[C@@H]1[C@@H]2CC[C@]2(C)[C@@H](c3ccc(=O)oc3)C[C@H]3O[C@]132 [Resibufagenin]	0.6%	0.2%		
CC(=O)S[C@@H]1CC2=CC(=O)CC[C@]2(C)[C@H]2CC[C@@]3(C)[C@@H](CC[C@@]34CCC(=O)O4)[C@H]12 [Spironolactone]			0.22%	
Telocinobufotoxin			7%	
